According to PubChem BioAssay (NCI):
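Briefly, cells in 96-well plates were exposed to five compound concentrations for 48 h, and endpoints were estimated by linear interpolation. The concentration for full growth arrest is given as TGI.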

Legend:
Test in all cases: inhibition of tumour cell growth, NCI panel, 48 h
[1] = system: SK-OV-3 ovarian
[2] = system: HT29 colon
[3] = system: SF-539 CNS
[4] = system: K-562 leukemia
[5] = system: HCT-116 colon
[6] = system: SF-268 CNS
[7] = system: CAKI-1 renal
[8] = system: HOP-92 NSCLC
[9] = system: IGROV1 ovarian
[10] = system: SNB-75 CNS
[11] = system: MDA-N
[12] = system: U251 CNS
[13] = system: UO-31 renal
[14] = system: SK-MEL-5 melanoma
[15] = system: A498 renal
[16] = system: COLO 205 colon
[17] = system: OVCAR-5 ovarian
[18] = system: MCF7 breast
[19] = system: PC-3 prostate
[20] = system: SNB-19 CNS
[21] = system: NCI-H460 lung
[22] = system: LOX IMVI melanoma
[23] = system: OVCAR-3 ovarian
[24] = system: HS 578T breast
[25] = system: SK-MEL-28 melanoma
[26] = system: NCI-H226 lung
[27] = system: A549 NSCLC
[28] = system: OVCAR-8 ovarian
[29] = system: KM20L2 colon
[30] = system: BT-549 breast
[31] = system: OVCAR-4 ovarian
[32] = system: MALME-3M melanoma
[33] = system: 786-0 renal
[34] = system: NCI-H522 lung
[35] = system: KM12 colon
[36] = system: NCI-H23 lung
[37] = system: SN12C renal
[38] = system: M14 melanoma
[39] = system: DU-145 prostate
[40] = system: RPMI-8226 leukemia
[41] = system: TK-10 renal
[42] = system: MOLT-4 leukemia
[43] = system: CCRF-CEM leukemia
[44] = system: SR leukemia
[45] = system: MDA-MB-231 breast
[46] = system: SW-620 colon
[47] = system: SK-MEL-2 melanoma
[48] = system: HCT-15 colon
[49] = system: HOP-62 NSCLC
[50] = system: MDA-MB-435
[51] = system: EKVX NSCLC
[52] = system: SF-295 CNS
[53] = system: T-47D breast
[54] = system: SNB-78 CNS
[55] = system: ACHN renal
[56] = system: RXF 393 renal
[57] = system: UACC-257 melanoma
[58] = system: HCC-2998 colon
[59] = system: HL-60(TB) leukemia
[60] = system: UACC-62 melanoma
[61] = system: NCI/ADR-RES ovarian

CN(C)CCCNc1ccnc2cccc([N+](=O)[O-])c12
TGI [1]: 22.9 µM
TGI [2]: 27 µM
TGI [3]: 45.1 µM
TGI [4]: > 100 µM
TGI [5]: 27.7 µM
TGI [6]: 47.7 µM
TGI [7]: 52.8 µM
TGI [8]: 28.8 µM
TGI [9]: 28.3 µM
TGI [10]: 73.4 µM
TGI [11]: 47 µM
TGI [12]: > 70.7 µM
TGI [13]: 38.8 µM
TGI [14]: 24.4 µM
TGI [15]: 30.7 µM
TGI [16]: 15.6 µM
TGI [17]: 44.1 µM
TGI [18]: 28.2 µM
TGI [19]: 30.3 µM
TGI [20]: 56.6 µM
TGI [21]: 25.2 µM
TGI [22]: 35.8 µM
TGI [23]: 20.6 µM
TGI [24]: 97.1 µM
TGI [25]: 35.4 µM
TGI [26]: 38.2 µM
TGI [27]: 35.7 µM
TGI [28]: > 100 µM
TGI [29]: 25.9 µM
TGI [30]: 43.9 µM
TGI [31]: 20.4 µM
TGI [32]: 21.4 µM
TGI [33]: 37.1 µM
TGI [34]: 18.2 µM
TGI [35]: 27 µM
TGI [36]: 23.5 µM
TGI [37]: 30.8 µM
TGI [38]: 25.8 µM
TGI [39]: > 100 µM
TGI [40]: > 100 µM
TGI [41]: 36 µM
TGI [42]: > 100 µM
TGI [43]: > 100 µM
TGI [44]: > 100 µM
TGI [45]: 39.6 µM
TGI [46]: 40.1 µM
TGI [47]: 33.8 µM
TGI [48]: 39.9 µM
TGI [49]: > 56.9 µM
TGI [50]: 42.3 µM
TGI [51]: 19.9 µM
TGI [52]: 36.5 µM
TGI [53]: 80.8 µM
TGI [54]: 61.6 µM
TGI [55]: 24.3 µM
TGI [56]: 61.1 µM
TGI [57]: 30.7 µM
TGI [58]: 32.1 µM
TGI [59]: > 100 µM

CCCCCCCCCCc1c2nc(c(CCCCCCCCCC)c3ccc([nH]3)c(CCCCCCCCCC)c3ccc([nH]3)c(CCCCCCCCCC)c3nc1C=C3)C=C2
TGI [1]: > 100 µM
TGI [2]: > 100 µM
TGI [60]: > 100 µM
TGI [3]: > 100 µM
TGI [4]: > 100 µM
TGI [5]: > 100 µM
TGI [6]: > 100 µM
TGI [7]: > 100 µM
TGI [8]: > 100 µM
TGI [9]: > 100 µM
TGI [10]: > 100 µM
TGI [11]: > 100 µM
TGI [12]: > 100 µM
TGI [13]: > 100 µM
TGI [14]: > 100 µM
TGI [15]: > 100 µM
TGI [16]: > 100 µM
TGI [17]: > 100 µM
TGI [18]: > 100 µM
TGI [19]: > 100 µM
TGI [20]: > 100 µM
TGI [61]: > 100 µM
TGI [21]: > 100 µM
TGI [22]: > 100 µM
TGI [23]: > 100 µM
TGI [24]: > 100 µM
TGI [25]: > 100 µM
TGI [26]: > 100 µM
TGI [27]: > 100 µM
TGI [28]: > 100 µM
TGI [30]: > 100 µM
TGI [31]: > 100 µM
TGI [32]: > 100 µM
TGI [33]: > 100 µM
TGI [34]: > 100 µM
TGI [35]: > 100 µM
TGI [36]: > 100 µM
TGI [37]: > 100 µM
TGI [38]: > 100 µM
TGI [39]: > 100 µM
TGI [40]: > 100 µM
TGI [41]: > 100 µM
TGI [42]: > 100 µM
TGI [43]: > 100 µM
TGI [44]: > 100 µM
TGI [45]: > 100 µM
TGI [46]: > 100 µM
TGI [47]: > 100 µM
TGI [48]: > 100 µM
TGI [49]: > 100 µM
TGI [50]: > 100 µM
TGI [51]: > 100 µM
TGI [52]: > 100 µM
TGI [53]: > 100 µM
TGI [55]: > 100 µM
TGI [56]: > 100 µM
TGI [57]: > 100 µM
TGI [58]: > 100 µM
TGI [59]: > 100 µM
